# Data as given in patent US4772586A, “Novel derivatives of arginine vasopressin antagonists” (Medical College of Ohio, priority 1986, dated 1988).
# *1 amine or outer side, *2 acyl side, *3 side chain or, on linkers, in order; H or OH if unused. Where a SMILES comes first, the peptide text is derived from it. Bridges are numbered along the chain shown (N, C = ends). Where no end group is shown, it is not given here. [ ]: non-standard residue; d: D form. X1 = O=C(CC1(S[*:2])CCCCC1)[*:1]
# How the values were obtained:
# [1] = system: ethanol-anesthesized water-loaded rats; experiment: Activity as antidiuretic agonists, intravenous injection; assay type: in vivo; conditions: for Agonistic Activities ADH: Table 1, antidiuretic agonism, i.v., ^+ = weak partial agonistic activity not clearly related to dose
# Procedure: Activity as antidiuretic agonists was determined by intravenous injection of the compounds being evaluated in ethanol-anesthesized water-loaded rats in accordance with Sawyer, Endocrinology, vol. 63 (1958) at 694. Antagonism of the antidiuretic response to subsequent injections of arginine vasopressin was tested by the method of Sawyer et al., Science, vol. 212 (1981) at 49.
# vasopressor response = experiment: Vasopressor (VP) agonistic activity; assay type: in vivo; conditions: Table 1; vasopressor agonism; ^+ = weak partial agonistic activity not clearly related to dose
# [2] = system: vasopressor response to arginine vasopressin; experiment: Antagonism to the vasopressor response (Anti-VP); assay type: in vivo; conditions: for Anti-VP pA2 / Anti-VP Potency pA2: estimated in vivo pA2; for Anti-VP Potency pA2: Table 4, ^+ = mixed
# Procedure, shortened: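 In vivo antagonism of arginine vasopressin pressor response per Dyckes et al. Effective dose (nmol/kg) is the antagonist dose making the response to 2x agonist units, injected 20 min later, equal that to 1x units. pA2 is the negative log of effective dose divided by 67 ml/kg distribution volume.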
# [3] = system: antidiuretic response to arginine vasopressin; experiment: Antagonism of the antidiuretic response to arginine vasopressin (Anti-ADH); assay type: in vivo, rats; conditions: for Anti-ADH Potency pA2: Table 4, estimated in vivo pA2
# Procedure, shortened: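 Compounds were given intravenously to ethanol-anesthetized, water-loaded rats, followed by arginine vasopressin challenge. Effective dose (nmol/kg) is the antagonist dose that reduces the response to 2x units of agonist, given 20 min later, to the response to 1x units. pA2 is the negative log of effective dose divided by an estimated 67 ml/kg distribution volume.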
molecule,measurement,setting,value
"NC(=O)CC[C@@H]1NC(=O)[C@H](Cc2ccccc2)NC(=O)[C@H](Cc2ccc(O)cc2)NC(=O)[C@@H](N)CSSC[C@@H](C(=O)N2CCC[C@H]2C(=O)N[C@@H](CCCN=C(N)N)C(=O)NCC(N)=O)NC(=O)[C@H](CC(N)=O)NC1=O [AVP, arginine vasopressin]",Agonistic Activities ADH,[1],330 ± 23 units/mg
same,Agonistic Activities VP,vasopressor response,382 ± 5 units/mg
"9-desglycine-argoinine vasopressin (CYFQNCPR; disulfide 1-6 (inferred); ends not checked; UniProt P01185 20-27, looked up, fragment) [desGly^9 AVP]",Agonistic Activities ADH,[1],164 ± 4 units/mg
same,Agonistic Activities VP,vasopressor response,< 0.05 units/mg
same,Anti-VP ED,"[2]; Table 1, effective dose",68 ± 16 nmol/kg
same,Anti-VP pA2,[2]; Table 1,6.09 ± 0.10
"deamido-arginine vasopressin (CYFQNCPRG-OH; disulfide 1-6 (inferred); ends not checked; UniProt P01185 20-28, looked up) [AVP-acid, purchased from Bachem, Inc; alternatively, vasopressinoic acid]",Agonistic Activities ADH,[1],4.7 ± 0.6 units/mg
same,antidiuretic character in vivo,[1]; Table 1 footnote b,antidiuretic agonist in vivo
same,Agonistic Activities VP,vasopressor response,< 0.03 units/mg
"9-desglycinamide-arginine vasopressin (CYFQNCPR; disulfide 1-6 (inferred); ends not checked; UniProt P01185 20-27, looked up, fragment) [desGly^9 (NH2)AVP]",Agonistic Activities ADH,[1],5.6 ± 1.1 units/mg
same,Agonistic Activities VP,vasopressor response,~ 0.02 units/mg
"CC[C@H](C)[C@@H]1NC(=O)[C@H](Cc2ccccc2)NC(=O)[C@@H](Cc2ccccc2)NC(=O)CC2(CCCCC2)SSC[C@@H](C(=O)N2CCC[C@H]2C(=O)N[C@@H](CCCNC(=N)N)C(=O)NCC(=O)NC)NC(=O)[C@H](CC(N)=O)NC1=O [[1-(beta-mercapto-beta,beta-cyclopentamethylenepropionic acid), 2-D-phenylalanine, 4-isoleucine, 9-glycine-N-methylamide]-arginine vasopressin] ([dF]FINCPRG-NHMe; linker N-5 via X1)",Anti-ADH Potency pA2,[3],8.07 ± 0.07
same,Anti-VP Potency pA2,[2],6.22
"CC[C@H](C)[C@@H]1NC(=O)[C@H](Cc2ccccc2)NC(=O)[C@@H](Cc2ccccc2)NC(=O)CC2(CCCCC2)SSC[C@@H](C(=O)N2CCC[C@H]2C(=O)N[C@@H](CCCNC(=N)N)C(=O)NCC(=O)NCC(N)=O)NC(=O)[C@H](CC(N)=O)NC1=O [[1-(beta-mercapto-beta,beta-cyclopentamethylenepropionic acid), 2-D-phenylalanine, 4-isoleucine, 9-glycine]-arginine vasopressinyl glycinamide] ([dF]FINCPRGG-NH2; linker N-5 via X1)",Anti-ADH Potency pA2,[3],7.83 ± 0.04
same,Anti-VP Potency pA2,[2],7.72
"CCOc1ccc(C[C@H]2NC(=O)CC3(CCCCC3)SSC[C@@H](C(=O)N3CCC[C@H]3C(=O)N[C@@H](CCCNC(=N)N)C(=O)NCC(N)=O)NC(=O)[C@H](CC(N)=O)NC(=O)[C@H](C(C)C)NC(=O)[C@H](Cc3ccccc3)NC2=O)cc1 [d(CH2)5 [D-Tyr(Et)^2]VAVP, [1-(beta-mercapto-beta,beta-cyclopentamethylenepropionic acid), 2-D-(O-ethyl)tyrosine, 4-valine]-arginine vasopressin, reference compound] ([dY](Et)FVNCPRG-NH2; linker N-5 via X1)",Anti-ADH pA2,"[3]; Table 1, estimated in vivo pA2 = negative log of effective dose divided by volume of distribution (67 ml/kg)",7.81 ± 0.07
same,Anti-VP pA2,[2]; Table 1,8.22 ± 0.12
